Data published in PMC9738927, “A Newly Identified Monoterpenoid-Based Small Molecule Able to Support the Survival of Primary Cultured Dopamine Neurons and Alleviate MPTP-Induced Toxicity In Vivo” (Molecules, 2022).

Columns and labels:
[1] = test system: MPTP-lesioned C57BL/6 mice; assay: DA and DOPAC levels in midbrain and striatum by HPLC-ED after MPTP lesion; type: in vivo
Method: Neurochemical analyses via HPLC-ED were conducted as described before. Microdissected samples of the striatum (ST) and midbrain were homogenized in 300 and 400 µL of cold 0.6 M HClO4, respectively, using a motor-driven grinder (Z359971, Sigma-Aldrich, USA) and the homogenate was spun for 15 min at 12,000 rpm (+4 °C). The pellet was diluted in 1 mL of 0.1 M NaCl and used for protein quantitation by Bradford (Bio Rad, USA) according to the manufacturer’s protocol. The clear supernatant was diluted twice with pure water and used for assay of DA and […] (DOPAC) by HPLC on Luna C18(2) column (5 μm particle size, L × I.D. 75 × 4.6 mm, Phenomenex, Torrance, CA, USA) with electrochemical detection (750 mV, DECADE II™ Electrochemical Detector; Antec, The Netherlands). The standard mixes containing 1, 2, and 3 ng of DA and DOPAC were repeatedly assayed throughout the entire procedure and used to plot the calibration curves for each substance. The areas of peaks were estimated using LabSolution LG/GC software version 5.54 (Shimadzu Corporation, Japan) and calibrated against the calibrated curves for corresponding standards. The contents of DA and DOPAC were expressed nanogram (ng) per milligram (mg) of protein assayed by Bradford.

[2] = test system: naïve primary midbrain dopamine neurons; assay: Survival of naïve cultured dopamine neurons (TH-positive cell count); type: cell-based, mouse
Method: (§1) We developed a compound library containing 20 diol derivatives and screened them on cultured primary DA neurons (Supplementary Materials, Table S1). Compounds were taken at a dose of 0.1 and 1 μM (based on effective doses for the epoxydiol). Based on the screening results, we selected four compounds and tested them in a naïve and MPP^+-treated (1-methyl-4-phenylpyridinium (MPP^+), the neurotoxic metabolite of MPTP) DA culture at 1, 10, and 100 nM to select the compound with the lowest effective dose.
(§2) The survival of cultured mouse DA neurons was assessed as described before. Briefly, naïve or MPP^+ (dopaminergic selective neurotoxin)-challenged embryonic midbrain neurons were cultured in the presence or absence of a diol-like compound. The number of survived DA neurons was estimated after immunocytochemical staining with antibodies recognizing the key enzyme of dopamine synthesis—tyrosine hydroxylase.

[3] = test system: MPP^+-treated primary midbrain dopamine neurons; assay: Survival of MPP+-challenged cultured dopamine neurons (TH-positive cell count); type: cell-based, mouse
Method: as §1, §2

MPTP-treated mice = test system: MPTP-treated mice; parameters: method as in PMID 31464415; details: related compound; cited from earlier work
[4] = test system: naïve primary midbrain dopamine neurons; parameters: method as in PMID 31464415; details: cultured DA neurons; cited from earlier work
[5] = 1 uM, compared to VEH-treated wells
[6] = positive control, compared to VEH

## N[C@@H](Cc1ccc(O)c(O)c1)C(=O)O [L-DOPA, reference compound]
[1]
  MPTP-induced reduction in DA level in the midbrain: tended to alleviate

## C=C(C)[C@@H]1CC=C(C)[C@@H](OC(C)=O)[C@@H]1OC(C)=O [Substance 1]
[2]; Mus musculus, Neuron, 1 uM, compared to VEH-treated wells, read-out: Support effect / inhibition, Naïve dopamine neurons, 1 uM
  inhibition at 1 µM: 1 to 29%

## C#CC1(O)C(O)C(C)=CCC1C(=C)C (stereo not drawn) [Substance 7]
[2]; [5]
  Support effect / inhibition, Naïve dopamine neurons, 1 uM: - (29-1% – -)

## C=CC1(O)C(O)C(C)=CCC1C(=C)C (stereo not drawn) [Substance 8]
[3]; 1 nM, compared to VEH-treated wells
  Support effect / inhibition, MPP+-treated dopamine neurons, 1 nM: 0 (0% – 0)
[3]; 10 nM, compared to VEH-treated wells
  Support effect / inhibition, MPP+-treated dopamine neurons, 10 nM: 0 (0% – 0)
[3]; 100 nM, compared to VEH-treated wells
  Support effect / inhibition, MPP+-treated dopamine neurons, 100 nM: 0 (0% – 0)

## C=C(CSc1ccc(Cl)cc1)C1CC2OC2(C)C(O)C1O (stereo not drawn) [Substance 9]
[2]; [5]
  Support effect / inhibition, Naïve dopamine neurons, 1 uM: - (29-1% – -)

## C=C(CSC(C)(C)C)C1CC2OC2(C)C(O)C1O (stereo not drawn) [Substance 10]
[2]; [5]
  Support effect / inhibition, Naïve dopamine neurons, 1 uM: - (29-1% – -)

## C=C(CSCC(C)C)C1CC2OC2(C)C(O)C1O (stereo not drawn) [Substance 11]
[2]; [5]
  Support effect / inhibition, Naïve dopamine neurons, 1 uM: - - (Inhibition 69-30% – - -)

## C=C(CSCc1ccccc1)C1CC2OC2(C)C(O)C1O (stereo not drawn) [Substance 13]
[2]; [5]
  Support effect / inhibition, Naïve dopamine neurons, 1 uM: - (29-1% – -)

## C=C(C)[C@@H]1C[C@H]2O[C@@]2(C)[C@@H](O)[C@@H]1O [epoxydiol]
MPTP-treated mice
  antiparkinsonian activity in vivo (effective dose): 20 mg/kg
[4]
  effective concentration in survival assay for DA neurons: 100 nM
  effective doses in survival assay of cultured dopamine neurons: 0.1 to 1 µM

B1: GDNF: glial cell line-derived neurotrophic factor, positive control in the neuron survival assays (protein, UniProt P39905 78-211, looked up)
Glial cell line-derived …: SPDKQMAVLPRRERNRQAAAANPENSRGKGRRGQRGKNRGCVLTAIHLNVTDLGLGYETKEELIFRYCSGSCDAAETTYDKILKNLSRNRRLVSDKVGQACCRPIAFDDDLSFLDDNLVYHILRKHSAKRCGCI
[2]; [6]
  survival of naïve primary midbrain dopamine neurons: promotes the survival
[3]; [6]
  survival of MPP+-treated primary midbrain dopamine neurons: promotes the survival
